pIC50: −log10 of the molar value.
Each compound was assayed against E3 ubiquitin-protein ligase Mdm2 (Homo sapiens, UniProt Q00987).
Chain of E3 ubiquitin-protein ligase Mdm2 (Q00987 whole entry): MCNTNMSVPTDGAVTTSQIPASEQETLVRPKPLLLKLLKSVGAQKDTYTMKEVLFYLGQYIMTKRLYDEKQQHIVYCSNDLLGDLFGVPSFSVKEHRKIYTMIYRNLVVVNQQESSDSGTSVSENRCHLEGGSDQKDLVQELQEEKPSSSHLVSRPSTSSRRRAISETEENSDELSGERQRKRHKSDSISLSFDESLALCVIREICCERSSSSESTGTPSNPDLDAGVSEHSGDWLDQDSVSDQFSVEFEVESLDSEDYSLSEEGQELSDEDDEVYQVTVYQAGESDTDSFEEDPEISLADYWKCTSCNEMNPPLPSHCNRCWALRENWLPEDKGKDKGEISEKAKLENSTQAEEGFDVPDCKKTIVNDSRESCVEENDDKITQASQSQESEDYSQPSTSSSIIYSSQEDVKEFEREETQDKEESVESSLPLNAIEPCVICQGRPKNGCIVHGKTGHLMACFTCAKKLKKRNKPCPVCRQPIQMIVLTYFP
Description: Inhibition of GST-tagged HDM2 (unknown origin) assessed as p53 ubiquitination by Western blot analysis

| Compound | pIC50 |
| --- | --- |
| O=c1nc2n(-c3ccccc3F)c3cc(C(F)(F)F)ccc3cc-2c(=O)[nH]1 | < 4.00 |
| O=c1nc2n(-c3ccccc3F)c3c([N+](=O)[O-])cccc3cc-2c(=O)[nH]1 | < 4.00 |
| O=c1nc2n(-c3ccccc3)c3c(Br)cccc3cc-2c(=O)[nH]1 | < 4.00 |
| Cc1ccc2cc3c(=O)[nH]c(=O)nc-3n(-c3ccc(Cl)cc3)c2c1 | < 4.00 |
| O=c1nc2n(-c3cccc(F)c3)c3c(Cl)cccc3cc-2c(=O)[nH]1 | < 4.00 |
| O=c1nc2n(-c3cccc(Cl)c3)c3c(Cl)cccc3cc-2c(=O)[nH]1 | < 4.00 |
| O=c1nc2n(-c3ccccc3F)c3ccc(Cl)cc3cc-2c(=O)[nH]1 | < 4.00 |
| O=c1nc2n(Cc3ccccc3)c3c(C(F)(F)F)cccc3cc-2c(=O)[nH]1 | < 4.00 |
| O=c1nc2n(-c3ccc(Cl)cc3)c3ccc(C(F)(F)F)cc3cc-2c(=O)[nH]1 | < 4.00 |

Results, then the compound that gave them:

| pIC50 | Compound |
| --- | --- |
| 4.88 | O=c1nc2n(-c3ccc(F)cc3)c3c(C(F)(F)F)cccc3cc-2c(=O)[nH]1 |
| < 4.00 | O=c1nc2n(-c3ccc(Cl)cc3)c3cccc(Cl)c3cc-2c(=O)[nH]1 |
| 4.71 | O=c1nc2n(-c3ccccc3F)c3c(C(F)(F)F)cccc3cc-2c(=O)[nH]1 |
| < 4.12 | O=c1nc2n(-c3ccc(Cl)cc3)c3ccc([N+](=O)[O-])cc3cc-2c(=O)[nH]1 |
| < 4.00 | O=c1nc2n(-c3ccccc3)c3c(Cl)cccc3cc-2c(=O)[nH]1 |
| < 4.00 | O=c1nc2n(-c3ccc(Cl)cc3)c3cc(C(F)(F)F)ccc3cc-2c(=O)[nH]1 |
| < 4.00 | O=c1nc2n(-c3ccc(Cl)cc3)c3cccc(C(F)(F)F)c3cc-2c(=O)[nH]1 |
| < 4.30 | O=c1nc2n(-c3ccc(Cl)cc3)c3c([N+](=O)[O-])cccc3cc-2c(=O)[nH]1 |
